How the values were obtained:
SK-MEL-5 [1] = experiment: In vitro total growth inhibition against melanoma SK-MEL-5 cell lines was reported.; format: functional; conditions: Homo sapiens, read-out: Log TGI (converted)
SW-620 [2] = experiment: In vitro growth inhibition against colon cancer SW620 cell line was reported.; format: functional; conditions: Homo sapiens
IGROV-1 = experiment: In vitro growth inhibition against ovarian cancer IGROV1 cell line was reported.; format: functional; conditions: Homo sapiens
TK-10 [3] = experiment: In vitro total growth inhibition against renal cancer TK-10 cell lines was reported.; format: functional; conditions: Homo sapiens, read-out: Log TGI (converted)
HOP-92 = experiment: In vitro total growth inhibition against non-small-cell lung cancer HOP-92 cell lines was reported.; conditions: Homo sapiens, read-out: Log TGI (converted)
COLO 205 [4] = experiment: In vitro growth inhibition against colon cancer COLO 205 cell line was reported.; format: functional; conditions: Homo sapiens
TK-10 [5] = experiment: In vitro growth inhibition against renal cancer TK-10 cell line was reported.; format: functional; conditions: Homo sapiens
HOP-62 = experiment: Log of molar concentration leading to 50% cell death against non-small-cell lung cancer HOP-62 cell line was reported; format: functional; conditions: Homo sapiens, read-out: Log LC50 (the source's name) (converted)
NCI-H46 = experiment: Log of molar concentration leading to 50% cell death against non-small-cell lung cancer […] cell line was reported; format: functional; conditions: Homo sapiens, read-out: Log LC50 (the source's name) (converted)
Homo sapiens = species: Homo sapiens; experiment: In vitro total growth inhibition against non-small-cell lung cancer EKVX cell lines was reported.; format: functional; conditions: read-out: Log TGI (converted)
SF-539 [6] = experiment: In vitro total growth inhibition against CNS cancer SF-539 cell lines was reported.; format: functional; conditions: Homo sapiens, read-out: Log TGI (converted)
HCT-116 [7] = experiment: In vitro total growth inhibition against colon cancer HCT116 cell lines was reported.; format: functional; conditions: Homo sapiens, read-out: Log TGI (converted)
SF-295 [8] = experiment: In vitro total growth inhibition against CNS cancer SF-295 cell lines was reported.; format: functional; conditions: Homo sapiens, read-out: Log TGI (converted)
SF-268 = experiment: In vitro growth inhibition against CNS cancer SF-268 cell line was reported.; format: functional; conditions: Homo sapiens
NCI/ADR-RES [9] = experiment: In vitro growth inhibition against breast cancer NCI/ADR-RES cell line was reported.; format: functional; conditions: Homo sapiens
SK-MEL-5 [10] = experiment: Log of molar concentration leading to 50% cell death against melanoma SK-MEL-5 cell line was reported; format: functional; conditions: Homo sapiens, read-out: Log LC50 (the source's name) (converted)
EKVX [11] = experiment: In vitro growth inhibition against non-small-cell lung cancer EKVX cell line was reported.; format: functional; conditions: Homo sapiens
OVCAR-5 [12] = experiment: In vitro growth inhibition against ovarian cancer OVCAR-5 cell line was reported.; format: functional; conditions: Homo sapiens
OVCAR-5 [13] = experiment: In vitro total growth inhibition against ovarian cancer OVCAR-5 cell lines was reported.; format: functional; conditions: Homo sapiens, read-out: Log TGI (converted)
PC-3 = experiment: In vitro growth inhibition against prostate cancer PC-3 cell line was reported.; format: functional; conditions: Homo sapiens
SK-MEL-2 [14] = experiment: Log of molar concentration leading to 50% cell death against melanoma SK-MEL-2 cell line was reported; format: functional; conditions: Homo sapiens, read-out: Log LC50 (the source's name) (converted)
SF-539 [15] = experiment: Log of molar concentration leading to 50% cell death against CNS cancer SF-539 cell line was reported; format: functional; conditions: Homo sapiens, read-out: Log LC50 (the source's name) (converted)
OVCAR-4 = experiment: Log of molar concentration leading to 50% cell death against ovarian cancer OVCAR-4 cell line was reported; format: functional; conditions: Homo sapiens, read-out: Log LC50 (the source's name) (converted)
Tumor Cell line = experiment: In vitro inhibition of 50% cell growth was reported as log of molar concentration for 60 cell lines.; format: functional; conditions: Homo sapiens
MDA-MB-231 = experiment: Log of molar concentration leading to 50% cell death against breast cancer MDA-MB-231/ATCC cell line was reported; format: functional; conditions: Homo sapiens, read-out: Log LC50 (the source's name) (converted)
TK-10 [16] = experiment: Log of molar concentration leading to 50% cell death against renal cancer TK-10 cell line was reported; format: functional; conditions: Homo sapiens, read-out: Log LC50 (the source's name) (converted)
EKVX [17] = experiment: Log of molar concentration leading to 50% cell death against non-small-cell lung cancer EKVX cell line was reported; format: functional; conditions: Homo sapiens, read-out: Log LC50 (the source's name) (converted)
CCRF-CEM = experiment: In vitro total growth inhibition against leukemia CCRF cell lines was reported.; format: functional; conditions: Homo sapiens, read-out: Log TGI (converted)
NCI/ADR-RES [18] = experiment: In vitro total growth inhibition against breast cancer NCI/ADR-RES cell lines was reported.; format: functional; conditions: Homo sapiens, read-out: Log TGI (converted)
RXF 393 = experiment: In vitro total growth inhibition against renal cancer RXF 393 cell lines was reported.; format: functional; conditions: Homo sapiens, read-out: Log TGI (converted)
T47D = experiment: In vitro total growth inhibition against breast cancer […] cell lines was reported.; format: functional; conditions: Homo sapiens, read-out: Log TGI (converted)
UACC-257 = experiment: Log of molar concentration leading to 50% cell death against melanoma UACC-257 cell line was reported; format: functional; conditions: Homo sapiens, read-out: Log LC50 (the source's name) (converted)
NCI-H322M [19] = experiment: In vitro total growth inhibition against non-small-cell lung cancer NCI-H322M cell lines was reported.; format: functional; conditions: Homo sapiens, read-out: Log TGI (converted)
UO-31 = experiment: In vitro growth inhibition against renal cancer UO-31 cell line was reported.; format: functional; conditions: Homo sapiens
MOLT-4 = experiment: In vitro growth inhibition against leukemia MOLT-4 cell line was reported.; format: functional; conditions: Homo sapiens
K562 = experiment: In vitro growth inhibition against leukemia K-562 cell line was reported.; format: functional; conditions: Homo sapiens
SK-MEL-2 [20] = experiment: In vitro growth inhibition against melanoma SK-MEL-2 cell line was reported.; format: functional; conditions: Homo sapiens
CAKI-1 = experiment: In vitro total growth inhibition against renal cancer CAKI-1cell lines was reported.; format: functional; conditions: Homo sapiens, read-out: Log TGI (converted)
OVCAR-8 = experiment: Log of molar concentration leading to 50% cell death against ovarian cancer OVCAR-8 cell line was reported; format: functional; conditions: Homo sapiens, read-out: Log LC50 (the source's name) (converted)
SF-295 [21] = experiment: Log of molar concentration leading to 50% cell death against CNS cancer SF-295 cell line was reported; format: functional; conditions: Homo sapiens, read-out: Log LC50 (the source's name) (converted)
NCI-H522 = experiment: In vitro growth inhibition against non-small-cell lung cancer […] cell line was reported.; format: functional; conditions: Homo sapiens
UACC-62 [22] = experiment: In vitro growth inhibition against melanoma UACC-62 cell line was reported.; format: functional; conditions: Homo sapiens
SNB-75 [23] = experiment: In vitro growth inhibition against CNS cancer SNB-75 cell line was reported.; format: functional; conditions: Homo sapiens
MDA-MB-435 = experiment: In vitro growth inhibition against breast cancer MDA-MB-435 cell line was reported.; conditions: Homo sapiens
OVCAR-3 = experiment: In vitro total growth inhibition against ovarian cancer OVCAR-3 cell lines was reported.; format: functional; conditions: Homo sapiens, read-out: Log TGI (converted)
HL-60 = experiment: In vitro total growth inhibition against leukemia HL-60(TB) cell lines was reported.; format: functional; conditions: Homo sapiens, read-out: Log TGI (converted)
UACC-62 [24] = experiment: Log of molar concentration leading to 50% cell death against melanoma UACC-62 cell line was reported; format: functional; conditions: Homo sapiens, read-out: Log LC50 (the source's name) (converted)
COLO 205 [25] = experiment: In vitro total growth inhibition against colon cancer COLO 205 cell lines was reported.; format: functional; conditions: Homo sapiens, read-out: Log TGI (converted)
786-0 = experiment: In vitro growth inhibition against renal cancer […] cell line was reported.; format: functional; conditions: Homo sapiens
SNB-75 [26] = experiment: In vitro total growth inhibition against CNS cancer SNB-75 cell lines was reported.; format: functional; conditions: Homo sapiens, read-out: Log TGI (converted)
MDA-N = experiment: In vitro growth inhibition against breast cancer MDA-N cell line was reported.; format: functional; conditions: Homo sapiens
HCT-116 [27] = experiment: In vitro growth inhibition against colon cancer HCT116 cell line was reported.; format: functional; conditions: Homo sapiens
U-251 = experiment: In vitro total growth inhibition against CNS cancer U251 cell lines was reported.; format: functional; conditions: Homo sapiens, read-out: Log TGI (converted)
A549 = experiment: In vitro total growth inhibition against non-small-cell lung cancer A 549/ATCC cell lines was reported.; format: functional; conditions: Homo sapiens, read-out: Log TGI (converted)
BT-549 = experiment: In vitro growth inhibition against breast cancer BT 549 cell line was reported.; format: functional; conditions: Homo sapiens
RPMI-8226 = experiment: In vitro total growth inhibition against leukemia […] cell lines was reported.; format: functional; conditions: Homo sapiens, read-out: Log TGI (converted)
HCT-15 = experiment: In vitro total growth inhibition against colon cancer HCT-15 cell lines was reported.; format: functional; conditions: Homo sapiens, read-out: Log TGI (converted)
SW-620 [28] = experiment: In vitro total growth inhibition against colon cancer SW-620 cell lines was reported.; format: functional; conditions: Homo sapiens, read-out: Log TGI (converted)
NCI-H322M [29] = experiment: In vitro growth inhibition against non-small-cell lung cancer […] cell line was reported.; format: functional; conditions: Homo sapiens

Structure (SMILES): O=C(Nc1cccc2nsnc12)c1cc2c(cc1Cl)Sc1nccn1S2(=O)=O
- TGI (SK-MEL-5 [1]): 33.9 µM
- GI50 (SW-620 [2]): 12 µM
- GI50 (IGROV-1): 5.5 µM
- TGI (TK-10 [3]): 22.9 µM
- TGI (HOP-92): 25.7 µM
- GI50 (COLO 205 [4]): 17.4 µM
- GI50 (TK-10 [5]): 10.5 µM
- CC50 (HOP-62): 8.71 µM
- CC50 (NCI-H46): 8.91 µM
- TGI (Homo sapiens): 4.68 µM
- TGI (SF-539 [6]): 4.9 µM
- TGI (HCT-116 [7]): 5.37 µM
- TGI (SF-295 [8]): 25.1 µM
- GI50 (SF-268): 3.39 µM
- GI50 (NCI/ADR-RES [9]): 17.8 µM
- CC50 (SK-MEL-5 [10]): 72.4 µM
- GI50 (EKVX [11]): 2.29 µM
- GI50 (OVCAR-5 [12]): 29.5 µM
- TGI (OVCAR-5 [13]): 83.2 µM
- GI50 (PC-3): 1.91 µM
- CC50 (SK-MEL-2 [14]): 64.6 µM
- CC50 (SF-539 [15]): 15.5 µM
- CC50 (OVCAR-4): 87.1 µM
- GI50 (Tumor Cell line): 45.7 µM
- CC50 (MDA-MB-231): 53.7 µM
- CC50 (TK-10 [16]): 50.1 µM
- CC50 (EKVX [17]): 9.77 µM
- TGI (CCRF-CEM): 13.5 µM
- TGI (NCI/ADR-RES [18]): 38.9 µM
- TGI (RXF 393): 28.8 µM
- TGI (T47D): 5.75 µM
- CC50 (UACC-257): 6.31 µM
- TGI (NCI-H322M [19]): 3.24 µM
- GI50 (UO-31): 2.09 µM
- GI50 (MOLT-4): 2.75 µM
- GI50 (K562): 4.07 µM
- GI50 (SK-MEL-2 [20]): 10 µM
- TGI (CAKI-1): 19.1 µM
- CC50 (OVCAR-8): 38 µM
- CC50 (SF-295 [21]): 55 µM
- GI50 (NCI-H522): 5.37 µM
- GI50 (UACC-62 [22]): 5.37 µM
- GI50 (SNB-75 [23]): 3.89 µM
- GI50 (MDA-MB-435): 8.13 µM
- TGI (OVCAR-3): 3.47 µM
- TGI (HL-60): 3.72 µM
- CC50 (UACC-62 [24]): 41.7 µM
- TGI (COLO 205 [25]): 30.9 µM
- GI50 (786-0): 16.6 µM
- TGI (SNB-75 [26]): 26.9 µM
- GI50 (MDA-N): 13.5 µM
- GI50 (HCT-116 [27]): 2.57 µM
- TGI (U-251): 15.8 µM
- TGI (A549): 38.9 µM
- GI50 (BT-549): 12.3 µM
- TGI (RPMI-8226): 4.07 µM
- TGI (HCT-15): 21.4 µM
- TGI (SW-620 [28]): 46.8 µM
- GI50 (NCI-H322M [29]): 1.78 µM
